The subject of data set [1] is PBMC. The experiment in a line: Stimulation of IL6 production in human PBMC at 1 ug/mL after 24 hrs by flow cytometry with cytometric bead array method. It is filed as functional, cell-based. Background: Flow cytometry measures light scatter and fluorescence of single cells or particles in a stream.
Data set [2] concerns PBMC. The data set can be described thus: Stimulation of IL6 production in human PBMC at 0.1 ug/mL after 24 hrs by flow cytometry with cytometric bead array method. It is filed as functional, cell-based.
The subject of data set [3] is PBMC. The data set can be described thus: Cytotoxicity against human PBMC at 0.1 ug/mL. Type of data set: cell-based.
Data set [4] has as its system PBMC. The data set can be described thus: Stimulation of IL10 production in human PBMC at 0.1 ug/mL after 24 hrs by flow cytometry with cytometric bead array method. It is filed as functional, cell-based.
Data set [5] relates to PBMC. The experiment in a line: Stimulation of IL10 production in human PBMC at 1 ug/mL after 24 hrs by flow cytometry with cytometric bead array method. Type of data set: functional, cell-based.
In data set [6] the test system is PBMC. The data set can be described thus: Stimulation of IFN-gamma production in human PBMC at 0.1 ug/mL after 24 hrs by flow cytometry with cytometric bead array method. It is filed as functional, cell-based.
Data set [7] relates to PBMC. The experiment in a line: Stimulation of IFN-gamma production in human PBMC at 1 ug/mL after 24 hrs by flow cytometry with cytometric bead array method. Type of data set: functional, cell-based.
Data set [8] has as its system PBMC. The experiment in a line: Stimulation of IL4 production in human PBMC at 0.1 ug/mL after 24 hrs by flow cytometry with cytometric bead array method. It is filed as functional, cell-based.
Data set [9] has as its system PBMC. The data set can be described thus: Stimulation of IL4 production in human PBMC at 1 ug/mL after 24 hrs by flow cytometry with cytometric bead array method. Type of data set: functional, cell-based.
The subject of data set [10] is PBMC. The experiment in a line: Stimulation of TNFalpha production in human PBMC at 1 ug/mL after 24 hrs by flow cytometry with cytometric bead array method. It is filed as functional, cell-based.
Data set [11] has as its system PBMC. The data set can be described thus: Stimulation of IL2 production in human PBMC at 0.1 ug/mL after 24 hrs by flow cytometry with cytometric bead array method. It is filed as functional, cell-based.
Data set [12] relates to PBMC. The data set can be described thus: Cytotoxicity against human PBMC at 1 ug/mL. It is filed as cell-based.
Data set [13] has as its system PBMC. The experiment in a line: Stimulation of IL2 production in human PBMC at 1 ug/mL after 24 hrs by flow cytometry with cytometric bead array method. Type of data set: functional, cell-based.
Data set [14] relates to PBMC. The experiment in a line: Stimulation of TNFalpha production in human PBMC at 0.1 ug/mL after 24 hrs by flow cytometry with cytometric bead array method. Type of data set: functional, cell-based.
Another data set deals with [Chlorella] fusca. The data set can be described thus: Antialgal activity against 'Chlorella' fusca at 50 ug/disk by agar diffusion assay. Type of data set: functional. The conditions noted are these: Scenedesmus fuscus; read-out: IZ. In general terms: Agar diffusion results depend on both activity and mobility in agar.
The test system of the next data set is Mycotypha microspora. The data set can be described thus: Antifungal activity against Mycotypha microspora at 50 ug/disk by agar diffusion assay. It is filed as functional. As to conditions: read-out: IZ.

We go through 8 compounds from ChEMBL document CHEMBL1142597, “Arugosins G and H: prenylated polyketides from the marine-derived fungus Emericellanidulans var. acristata” (J Nat Prod, 2006).

Activity calls are given as the source filed them. The calls are words filed in the database; no cut-off is given here.

With `CC(C)=CCOc1c(C)cc(O)c2c1C(O)Oc1ccc(CC=C(C)C)c(O)c1C2=O` (centres undefined) [ARUGOSIN A], the result in the data set with PBMC [1], in the data set with PBMC [2], in the data set on PBMC [4], in the data set with PBMC [5], with PBMC [6] and in the data set on PBMC [7] was inactive. In addition, the outcome in the data set on PBMC [8], in the data set on PBMC [9], in the data set with PBMC [10], in the data set on PBMC [11], in the data set on PBMC [13] and with PBMC [14] was inactive. Besides, the Activity entry in the data set with PBMC [3] and with PBMC [12] was “Non-toxic” in each case.

For the compound `CC(C)=CCOc1c(C)cc(O)c2c1C(O)Oc1c(CC=C(C)C)ccc(O)c1C2=O` (centres undefined) [ARUGOSIN B], the result in the data set with PBMC [1], with PBMC [2], in the data set on PBMC [4], with PBMC [5], with PBMC [6] and in the data set with PBMC [7] was inactive. The outcome in the data set on PBMC [8], in the data set on PBMC [9], in the data set with PBMC [10], in the data set on PBMC [11], in the data set on PBMC [13] and in the data set on PBMC [14] was inactive. Further, the Activity entry in the data set with PBMC [3] and with PBMC [12] was “Non-toxic” in each case.

With `CC(C)=CCOc1c(C)cc(O)c2c1C(O)Oc1c(CC=C(C)C)cc(CC=C(C)C)c(O)c1C2=O` (centres undefined) [ARUGOSINS G], the outcome in the data set on PBMC [1], with PBMC [2], with PBMC [4], with PBMC [5], in the data set on PBMC [6] and in the data set on PBMC [7] was inactive. The result in the data set on PBMC [8], in the data set with PBMC [9], in the data set with PBMC [10], with PBMC [11], in the data set on PBMC [13] and in the data set with PBMC [14] was inactive. The Activity entry in the data set with PBMC [3] and in the data set on PBMC [12] was “Non-toxic” throughout.

As for `CC(C)=CCc1ccc(O)c(C(=O)c2c(O)cc(C)c(O)c2C=O)c1O` [ARUGOSINS H], the outcome with PBMC [1], in the data set on PBMC [2], with PBMC [4], in the data set on PBMC [5], with PBMC [6] and with PBMC [7] was inactive. Also, the result in the data set with PBMC [8], in the data set on PBMC [9], in the data set on PBMC [10], in the data set on PBMC [11], with PBMC [13] and in the data set with PBMC [14] was inactive. Besides, the Activity result in the data set on PBMC [3] and in the data set on PBMC [12] was “Non-toxic” each time. Further, the zone of inhibition at 50 µg/disc in data set [Chlorella] fusca amounted to 2 mm; in the data set on Mycotypha microspora, 3 mm.

As to `CC(C)=CCOc1c(C)cc2oc3c(CC=C(C)C)ccc(O)c3c(=O)c2c1CO` [EMERICELLIN], the outcome in the data set with PBMC [1], in the data set with PBMC [2], in the data set with PBMC [4], in the data set with PBMC [5], in the data set on PBMC [6] and in the data set on PBMC [7] was inactive. Besides, the result in the data set with PBMC [8], with PBMC [9], in the data set on PBMC [10], with PBMC [11], in the data set on PBMC [13] and in the data set with PBMC [14] was inactive. Further, the Activity result with PBMC [3] and in the data set on PBMC [12] was “Non-toxic” throughout.

In the case of `C=C1CC[C@@H]2[C@](C)(CC[C@H](O)[C@@]2(C)CCC=C(C)C)[C@@H]1Cc1c[nH]c2ccccc12` [EMINDOLE DA], the outcome with PBMC [1], with PBMC [2], in the data set with PBMC [4], in the data set with PBMC [5], in the data set on PBMC [6] and with PBMC [7] was inactive. The outcome with PBMC [8], in the data set on PBMC [9], with PBMC [10], in the data set with PBMC [11], in the data set on PBMC [13] and with PBMC [14] was inactive. Besides, the Activity entry with PBMC [3] and in the data set on PBMC [12] was “Non-toxic” throughout.

For `O=C1OC(O)C(Cc2ccccc2)=C1c1ccccc1` (centres undefined) [MICROPERFURANONE], the outcome in the data set on PBMC [1], with PBMC [2], with PBMC [4], in the data set with PBMC [5], in the data set with PBMC [6] and in the data set with PBMC [7] was inactive. Also, the outcome with PBMC [8], in the data set with PBMC [9], in the data set with PBMC [10], with PBMC [11], in the data set with PBMC [13] and with PBMC [14] was inactive. Besides, the Activity entry in the data set on PBMC [3] and in the data set with PBMC [12] was “Non-toxic” throughout.

Turning to `C=C(C)[C@H]1COc2c(C)cc3oc4c(CC=C(C)C)ccc(O)c4c(=O)c3c2[C@@H]1O` [SHAMIXANTHONE], the outcome in the data set with PBMC [1], in the data set on PBMC [2], in the data set with PBMC [4], in the data set with PBMC [5], in the data set on PBMC [6] and in the data set with PBMC [7] was inactive. In addition, the outcome in the data set with PBMC [8], with PBMC [9], with PBMC [10], with PBMC [11], in the data set on PBMC [13] and in the data set on PBMC [14] was inactive. The Activity result with PBMC [3] and in the data set on PBMC [12] was “Non-toxic” each time.
